Assay results published in patent US6229055A, “Synthesis of fluorinated xanthene derivatives” (Molecular Probes, Inc., priority 2000, dated 2001).

Key:
[1] = biological target: T1, Horseradish Peroxidase (HRP) (Armoracia rusticana, UniProt P00433); assay: Detection of horseradish peroxidase activity in vitro; type: biochemical; settings: 1 mM substrate, OPD buffer with hydrogen peroxide, HRP 1 μL, 10^-4 Units
T1 sequence (P00433 31-353): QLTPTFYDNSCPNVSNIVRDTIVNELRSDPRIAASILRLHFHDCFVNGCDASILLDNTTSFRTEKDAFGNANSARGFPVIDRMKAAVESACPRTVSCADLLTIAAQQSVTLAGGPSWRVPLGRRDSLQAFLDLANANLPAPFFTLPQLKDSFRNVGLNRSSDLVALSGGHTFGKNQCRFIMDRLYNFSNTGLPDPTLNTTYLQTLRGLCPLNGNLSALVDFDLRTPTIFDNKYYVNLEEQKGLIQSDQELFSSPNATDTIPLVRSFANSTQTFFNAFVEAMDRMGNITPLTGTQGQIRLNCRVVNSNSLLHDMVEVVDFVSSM
Description: A 2 mM solution (0.5 mL) of TFDHF is prepared in water. […] Minor background fluorescence, indicating the presence of some contaminating oxidized dye, serves to provide a fluorescence signal at time 0. […] After incubation at room temperature in darkness for 25 minutes, the reaction solution is diluted 1:20 into potassium phosphate buffer at pH 8, and fluorescence emission spectra are recorded.

Solubility in water = type: physicochemical
From the text: (§1) In another substrate embodiment, the dye compounds are fluorinated dyes for which R^11 is H, that are substrates for oxidative enzymes and other reactive oxidizing agents, particularly for peroxidase enzymes. […] Unlike their non-fluorinated analogs, fluorinated dihydrofluorescein and dihydrorhodol, are stable in aqueous solutions without the use of blocking groups on the hydroxyl or amine functions that typically reduce aqueous solubility. For example, Compound 84 (4,5,6,7-tetrafluorodihydrofluorescein, Example 85) is soluble in water to at least 2 mM, while existing diacetate fluorogenic peroxidase substrates are typically soluble only in the single-digit μM concentration range.

[2] = Stability toward hydrogen peroxide without peroxidase; type: physicochemical; settings: absence of horseradish peroxidase, 1 mM substrate, OPD buffer pH 5.5
From the text: as §1
A 2 mM solution (0.5 mL) of TFDHF is prepared in water. OPD buffer (0.5M Phosphate-citrate buffer) without hydrogen peroxide (pH 5.5, 0.5 mL) is added, resulting in a 1 mM concentration of substrate. Minor background fluorescence, indicating the presence of some contaminating oxidized dye, serves to provide a fluorescence signal at time 0. […] After incubation at room temperature in darkness for 25 minutes, the reaction solution is diluted 1:20 into potassium phosphate buffer at pH 8, and fluorescence emission spectra are recorded.

[3] = Fluorescence response of heavy metal ion indicator; type: binding; settings: 1 micromolar compound, 5 micromolar Cu(I), 5 mM MOPS buffer pH 7.2
Description: The tetramethyl ester intermediate is then dissolved in 15 mL 1,4-dioxane and concentrated ammonium hydroxide (0.8 mL) is added in one portion. The reaction mixture is centrifuged and the orange pellet is dissolved in 5 mL pure water, then applied to a column of lipophilic SEPHADEX […] resin and eluted with pure water. Pure column fractions are combined, frozen and lyophilized to give phenanthroline conjugate, dipotassium salt (Compound 106) as an orange powder. κ=54,479 cm^-1 M^-1 in 10 mM EGTA, 100 mM KCl, 10 mM MOPS buffer at pH 7.20.

Structure (SMILES)	fluorescence production on addition of HRP [1]	soluble in water (Solubility in water)	reaction with hydrogen peroxide alone [2]	reaction with hydrogen peroxide alone ([2]; listed as TFDHF)	decrease in emission intensity at 523 nm [3] [fold]
O=C(O)c1c(F)c(F)c(F)c(F)c1C1c2ccc(O)cc2Oc2cc(O)ccc21 [Compound 84, 4,5,6,7-tetrafluorodihydrofluorescein]	immediate production of bright yellow fluorescence	at least 2 mM	stable toward reaction of hydrogen peroxide during the period of analysis	no detectable fluorescence increase	
O=C(Nc1cc2cccnc2c2ncccc12)c1ccc2c(c1)C(=O)OC21c2cc(F)c(O)cc2Oc2cc(O)c(F)cc21 [Compound 106]					5
